The values that follow come from patent US20130324615A1, “BIODEGREDATION SUPPRESSION SOLUTION FOR FORENSIC SAMPLES” (Indiana University Research and Technology Corporation, priority 2011, published 2013).

What all share (format): cell-based
The test system of assay [1] is bacteria grown from soil sample extract. The assay can be described thus: Anti-microbial agent screening: soil-extract broth cultures treated with agent, then sub-cultured. To be noted: confirmation on TSA plates. The procedure:
In anti-microbial agent screening studies, a soil sample was extracted with a 0.9% saline solution of sodium chloride (NaCl) and water (H2O) and a sample loop was used to transfer approximately 10 μL of extract to a test tube containing sterile Tryptic Soy Broth (TSB). […] The broth samples were then treated with anti-microbial agents at a known concentration. The treated broth samples were then sub-cultured in another sterile TSB, minimal media (MM) or spread on sterile Tryptic Soy Agar (TSA) plates. MM is a nutrient deficient growth medium where citric acid is the only carbon source and which is selective against many species of bacteria. Bacterial growth was confirmed by visible inspection of the secondary TSB, MM or TSA plate. The broth/plate samples were then evaluated for how long they remained free of bacterial growth. […] The column labeled Bacterial Confirmatory Analysis provides the subculture media used to confirm bacterial growth.

The subject of assay [2] is bacteria of soil sample. The assay is described as follows: Culturing study: soil sample directly treated with anti-microbial agent, extract inoculated into sterile TSB. To be noted: concentration not given. The procedure:
Additional culturing studies were carried out where a soil sample was directly treated with an anti-microbial agent. The exposure time of the soil sample to the anti-microbial was either 60 seconds or 24 hours. The extract was then sampled and used to inoculate a sterile TSB. The amount of time for bacterial growth to become visible was then noted.

The test system of assay [3] is bacteria from saline extract of a soil sample. The assay can be described thus: Growth curve by UV-Vis absorbance at 600 nm of TSB inoculated with saline soil extract. The settings on record: TSB treated with 1.8% triclosan in 0.1 M NaOH or with bleach; room temperature, up to 80 days. The protocol: FIG. 1 describes a growth curve constructed using UV-vis analysis of cultures taken from soil exposed to water, 0.1 M sodium hydroxide (NaOH), 1.81% triclosan and bleach.
A final culturing study was conducted where a set of culture tubes containing sterile TSB were inoculated with a saline extract of a soil sample. One set of culture tubes contained only sterile TSB, a second set contained sterile TSB treated with 0.1 M NaOH, a third set contained sterile TSB treated with 1.8% triclosan in 0.1 M NaOH and a fourth set contained sterile TSB treated with bleach. The culture tubes were allowed to stand at room temperature for periods of up to 80 days. Growth was then monitored three times daily for up to 4 days by a single beam diode array UV-Vis Spectrophotometer in the 400 nm to 800 nm range. The absorbance of the samples at 600 nm was monitored over the course of the study.

As to “Benzalkonium chloride [Benzalkonium chloride in water]”, the “Effective Period (time sub-culture remained free of bacterial growth)” value in assay [1] (agent at 1%) stood at 0 days.

Consider `[H]/N=C(\N/C(=N/[H])NCCCCCCNC(=N)NC(=N)Nc1ccc(Cl)cc1)Nc1ccc(Cl)cc1` [Chlorhexidine in water, Chlorhexidine], for which the “Effective Period (time sub-culture remained free of bacterial growth)” value in assay [1] (agent at 14%) came out at 0 days. The “Effective period (time for bacterial growth to become visible, cloudy)” value in assay [2] (soil exposure time 60 s) is on record as “Cloudy after 8 days”; in assay [2] (soil exposure time 24 hrs), “Still clean after 36 days”.

Consider `CC(C)(C)CC(C)(C)c1ccc(OCCOCC[N+](C)(C)Cc2ccccc2)cc1` [Benzethonium chloride in water, Benzethonium chloride], for which the “Effective Period (time sub-culture remained free of bacterial growth)” value in assay [1] (agent at 1%) was found to be 0 days.

Turning to `O=S(=O)([O-])[O-].[Cu+2]` [Copper Sulfate in water, Copper Sulfate], in assay [1] (agent at 5%), the “Effective Period (time sub-culture remained free of bacterial growth)” value was 0 days.

For the compound `Oc1cc(Cl)ccc1Oc1ccc(Cl)cc1Cl` [triclosan, 2,4,4′-trichloro-2′-hydroxydiphenyl ether], the “Bacterial growth by sample absorbance at 600 nm (FIG. 1)” value in assay [3] is recorded as “prevent bacterial growth”.
